Legend:
[1] = molecular target: T1, OTUB1 (Homo sapiens, UniProt Q96FW1); assay: Gel-based ABPP: competition against IA-rhodamine labeling of OTUB1; assay type: binding; conditions: pre-incubated with OTUB1 30 min at 37° C.; IA-rhodamine 500 nM, 30 min room temperature; in-gel fluorescence; n=3
Description: Vehicle (DMSO) or an exemplary DUB Recruiter (Compound 100) were pre-incubated with OTUB1 for 30 min at 37° C. prior to IA-rhodamine labeling (500 nM, 30 min room temperature). OTUB1 was then separated by SDS/PAGE and in-gel fluorescence was assessed. Protein loading is illustrated by silver staining. The gel shown is representative gel of n=3 biologically independent samples/group.
Recombinant OTUB1 ([…]) was pre-treated with either DMSO vehicle or covalent ligand or bifunctional compounds at 37° C. for 30 min in 25 μL of PBS, and subsequently treated with of IA-Rhodamine (Setareh Biotech) at room temperature for 1 h. The reaction was stopped by addition of 4× reducing Laemmli SDS sample loading buffer (Alfa Aesar). After boiling at 95° C. for 5 min, the samples were separated on precast 4-20% Criterion TGX gels (Bio-Rad). Probe-labeled proteins were analyzed by in-gel fluorescence using a ChemiDoc MP (Bio-Rad).
A covalent ligand screen of cysteine-reactive libraries competed against IA-rhodamine labeling of a recombinant exemplary deubiquitinase OTUB1 was carried out to identify small molecule binders to OTUB1 by gel-based activity-based protein profiling (ABPP). […] OTUB1 was then separated by SDS/PAGE and in-gel fluorescence was assessed and quantified.
Target sequence in this assay (Q96FW1 whole entry): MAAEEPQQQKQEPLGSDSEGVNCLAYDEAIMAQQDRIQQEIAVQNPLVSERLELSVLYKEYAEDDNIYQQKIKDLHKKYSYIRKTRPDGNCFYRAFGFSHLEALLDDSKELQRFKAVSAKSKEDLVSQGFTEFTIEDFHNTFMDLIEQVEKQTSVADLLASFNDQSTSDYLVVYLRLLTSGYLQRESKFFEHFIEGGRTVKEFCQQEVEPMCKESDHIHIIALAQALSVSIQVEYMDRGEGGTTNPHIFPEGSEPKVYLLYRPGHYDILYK

[2] = molecular target: T1, OTUB1; assay: LC-MS/MS analysis of tryptic peptides from OTUB1 covalently bound to DUB Recruiter; assay type: binding; conditions: tryptic peptides from OTUB1 covalently bound to compound
Target sequence in this assay (Q96FW1 whole entry): as above

[3] = molecular target: T1, OTUB1; assay: In vitro reconstituted OTUB1 deubiquitination activity assay (monoubiquitin release from di-ubiquitin); assay type: biochemical; design: dose or concentration left out as unconfirmed; conditions: in the presence of UBE2D1; OTUB1 pre-incubated with Compound 100 for 1 hr; Western blotting
Description: These studies were performed in the presence of OTUB1-stimulating Ubiquitin-conjugating enzyme E2 D1 (UBE2D1), an E2 ubiquitin ligase that engages in a complex with OTUB1 to stimulate OTUB1 activity.
Previously described methods were used to assess DUB Recruiters effects on OTUB1 activity. Recombinant OTUB1 (500 nM) was pre-incubated with DMSO or Compound 100 […] for 1 hr. To initiate assay pre-treated OTUB1 enzyme was mixed 1:1 with di-Ub reaction mix for final concentrations of 250 nM OTUB1, 1.5 μM di-Ub, 12.5 μM UBE2D1 and 5 mM DTT. The appearance of mono-Ub was monitored by Western blotting over time by removing a portion of the reaction mix and adding Laemmli's buffer to terminate the reaction. Blot shown is a representative gel from n=3 biologically independent experiments/group.
Target sequence in this assay (Q96FW1 whole entry): as above
Target sequence in this assay (P51668 whole entry partner): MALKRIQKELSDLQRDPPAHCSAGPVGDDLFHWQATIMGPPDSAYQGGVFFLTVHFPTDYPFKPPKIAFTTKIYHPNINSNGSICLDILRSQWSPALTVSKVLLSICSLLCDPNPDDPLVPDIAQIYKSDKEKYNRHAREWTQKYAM

[4] = molecular target: CFTR-OTUB1 complex (Homo sapiens, UniProt P13569+Q96FW1, DEL508-508); assay: Native mass spectrometry analysis of ternary complex formation; conditions: native MS; recombinant OTUB1 and DF508-harboring CFTR nucleotide-binding domain; 50 μM compound final
Description: FIGS. 15A-15D are images that confirm formation of a ternary complex between CFTR, an exemplary bifunctional compound (Compound 201), and OTUB1 in vitro using recombinant protein and native mass spectrometry (MS)-based approaches. FIGS. 15A-15C depict native mass spectra of CFTR-OTUB1 complex formation in the presence of DMSO (FIG. 15A), the DUB Recruiter Compound 100 alone (FIG. 15B), or the bifunctional compound Compound 201 (FIG. 15C).
Native mass spectrometry experiments were performed on a Thermo QE UHMR equipped with a nano-electrospray ionization source (Advion TriVersa NanoMate). Recombinant OTUB1 was first buffer exchanged into 150 mM ammonium acetate, 100 μM MgCl2, and 100 μM ATP at pH 6.7. 4 μM OTUB1 was then pre-incubated at room temperature for 24 hours with either DMSO, DUB Recruiter Compound 100 (100 μM), or DUBTAc Compound […] (100 μM). After 24 hours, 4 μM CFTR, in the same buffer, was added to the OTUB1 solution, for final concentrations of 2 μM of each protein with either DMSO or 50 μM compound. The solution was then allowed to incubate for 30 minutes prior to analysis on the mass spectrometer. Mass spectra were recorded in positive ion mode with a mass range of 1000-8000 m/z. Each spectrum was then deconvoluted and relevant peaks were integrated to determine % ternary complex formed. All experiments were performed in triplicate.

Sequence of CFTR-OTUB1 complex (Q96FW1 whole entry, stated change not applied, the tested form may be a part): as the sequence (Q96FW1 whole entry) above
Sequence of CFTR-OTUB1 complex (P13569 with tags, fused parts or gaps DEL508-508 limits assumed): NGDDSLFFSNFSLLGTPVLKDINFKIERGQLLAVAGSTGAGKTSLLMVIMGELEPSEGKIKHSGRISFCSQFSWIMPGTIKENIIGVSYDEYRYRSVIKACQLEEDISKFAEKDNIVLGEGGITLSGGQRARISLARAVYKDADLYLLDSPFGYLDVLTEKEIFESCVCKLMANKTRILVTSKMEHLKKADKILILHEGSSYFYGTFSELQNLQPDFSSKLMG

inhibition of IA-rhodamine binding of OTUB1 [1]	cysteine of OTUB1 targeted (covalent modification site) [2]	modification of the catalytic C91 of OTUB1 [2]	OTUB1 deubiquitination activity (monoubiquitin release from di-ubiquitin) [3]	SMILES	CFTR-OTUB1 complex formation [4]
dose-responsive inhibition	selectively targets C23	no detectable modification	does not inhibit	C=CC(=O)N1CCN(c2ccc(C)o2)C(=O)C1 [Compound 100]	not
–	–	–	–	C=CC(=O)N1CCN(c2ccc(CCC(=O)NCCCCCNC(=O)c3cccc(-c4nc(NC(=O)C5(c6ccc7c(c6)OC(F)(F)O7)CC5)ccc4C)c3)o2)C(=O)C1 [Compound 201, N-(5-(3-(5-(4-acryloyl-2-oxopiperazin-1-yl)furan-2-yl)propanamido)pentyl)-3-(6-(1-(2,2-difluorobenzo[d][1,3]dioxol-5-yl)cyclopropane-1-carboxamido)-3-methylpyridin-2-yl)benzamide]	significant CFTR-OTUB1 complex formation was observed

— patent publication US20240252655A1, “DEUBIQUITINASE-TARGETING CHIMERAS AND RELATED METHODS” (Novartis AG, priority 2021, published 2024)
